Reference: US20140186329A1, “POLYPHENOL ANALOGS TO TREAT ISCHEMIA” (priority 2011, published 2014)
Read-outs that look alike come from different tables or passages of the source.

Key:
PC12 cells = test: PC12 cell differentiation (neurite outgrowth); assay type: cell-based; details: N2 medium, derivative 1-10 μM, 24 hr, visual inspection
Description: PC 12 cells in N2 medium were treated with the derivatives (1-10 μM) or Fisetin (10 μM) as a positive control for 24 hr at which time the cells were scored for the presence of neurites. PC12 cells produce neurites much more rapidly when treated in N2 medium than when treated in regular growth medium. For each treatment, 100 cells in each of three separate fields were counted. Cells were scored positive if one or more neurites>1 cell body diameter in length were observed.
(§1) Three secondary screens allowed assessment of three key activities of Fisetin that are highly relevant to stroke, as well as other neurological disorders: maintenance of glutathione (GSH), the major endogenous cellular antioxidant, inhibition of LPS-induced microglial activation, an indicator of anti-inflammatory activity and PC 12 cell differentiation, a measure of neurotrophic activity. All of these activities are relevant to the nerve cell loss seen in stroke (Gelderblom, et al., Stroke. 2009, 40 (5), 1849-1857; Pandya, et al., Cent. Nerv. Syst. Agents. Med. Chem. (2011) April 27; Lewerenz, et al., J. Neurochem. (2010) 113 (2), 502-504). […] To assess GSH maintenance, total intracellular GSH levels after a 24 hr treatment with the compound both in the absence and presence of glutamate, an inducer of GSH loss and oxidative stress (Tan, et al., Curr. Top. Med. Chem. (2001) 1, 497-506; Maher, et al., Free Radical Research. (2006) 40 (10), 1105-1111) was measured. Inhibition of LPS-induced microglial activation was determined by treating N9 mouse microglial cells with LPS alone and in the presence of the compounds and assaying NO release into the medium 24 hr later (Zheng, et al., Int. Immunopharmacol. (2008) 8, (3), 484-494). PC12 cell differentiation was determined by treating PC12 cells with the compounds and looking at neurite outgrowth after 24 hr. In all cases, Fisetin was used as a positive control (Sagara, et al., J. Neurochem. (2004) 90, 1144-1155).
(§2) Cell viability was determined after 24 hr by the MTT assay. The ability to maintain GSH (GSH) was determined by treating HT22 cells with different doses of each derivative (1-10 μM) in the presence of 5 mM glutamate. After 24 hr cell extracts were prepared and analyzed for total GSH. Fisetin (10 μM) was used as a positive control. The ability to induce PC12 cell differentiation (PC 12 diff' n) was determined by treating PC12 cells in N2 medium with different doses of each derivative (1-10 μM) for 24 hr. Differentiation was assessed by visual inspection with Fisetin (10 μM) as a positive control. Anti-inflammatory activity (microglia) was assessed in N9 microglial cells treated with bacterial lipopolysaccharide alone or in the presence different doses of each derivative (1-10 μM) for 24 hr. Fisetin was used as a positive control. TEAC values, a measure of direct antioxidant activity, were determined using the ABTS decolorization assay.

HT22 cells [1] = test: In vitro ischemia assay (HT22 cell IAA assay, MTT); assay type: cell-based, mouse; details: for fold improvement of neuroprotective activity/potency relative to Fisetin: in vitro ischemia, HT22/IAA; for Emax: HT-22, HT22 Cell IAA assay, read-out: Max Protection
Description: Cell viability was determined by a modified version of 3-(4,5-dimethylthiazol-2-yl)-2,5-diphenyl tetrazolium bromide (MTT) assay based on the standard procedure (Maher, et al., Brain Research. (2007), supra). Cells were seeded onto 96-well microtiter plates at a density of 5×10^3 cells per well. For the in vitro ischemia assay, the next day, the medium was replaced with DMEM supplemented with 7.5% DFCS and the cells were treated with 20 μM iodoacetic acid (IAA) alone or in the presence of the different derivatives. After 2 hr the medium in each well was aspirated and replaced with fresh medium without IAA but containing the derivatives. 20 hr later, the medium in each well was aspirated and replaced with fresh medium containing 2.5 μg/ml MTT. After 4 hr of incubation at 37° C., the cells were solubilized with 100 μl of a solution containing 50% dimethylformamide and 20% SDS (pH 4.7). The absorbance at 570 nm was measured on the following day with a microplate reader (Molecular Devices). Results were confirmed by visual inspection of the wells. Controls included compound alone to test for toxicity and compound with no cells to test for interference with the assay chemistry.
For a primary screen, an in vitro ischemia model in combination with the HT22 nerve cell line (Maher, et al., Brain Research. (2007) 1173, 117-125) was chosen. […] To induce ischemia in the HT22 cells we used iodoacetic acid (IAA), a well-known, irreversible inhibitor of the glycolytic enzyme glyceraldehyde 3-phosphate dehydrogenase (G3PDH) (Winkler, et al., Exp. Eye Res. (2003) 76, 715-723). IAA has been used in a number of other studies to induce ischemia in nerve cells (Reshef, et al., Neurosci. Lett. (1997) 238, 37-40; Sperling, et al., Neursci. Lett. (2003) 351, 137-140; Rego, et al., Neurochem. Res. (1999) 24, 351-358; Sigalov, et al., J. Mol. Neurosci. (2000) 15, 147-154; and Reiner, et al., Neurosci. Lett. (1990) 119, 175-178), including several recent screens for neuroprotective molecules (Biraboneye, et al., J. Med. Chem. (2009) 52 (14), 4358-4369; Biraboneye, et al., Chem. Med. Chem. (2010) 5 (1), 79-85). The changes following IAA treatment of neural cells are very similar to those seen in animal models of ischemic stroke (Lipton, et al., Physiol. Rev. (1999) 79, 1431-1568) and include alterations in membrane potential (Reiner, et al., Neurosci. Lett. (1990) 119, 175-178), breakdown of phospholipids (Taylor, et al., J. Pharmacol. Exp. Ther. (1996) 276, 1224-1231), loss of ATP (Winkler, et al., Exp. Eye Res. (2003) 76, 715-723; Sperling, et al., Neursci. Lett. (2003) 351, 137-140) and an increase in reactive oxygen species (ROS) (Taylor, et al., J. Pharmacol. Exp. Ther. (1996), supra; and Sperling, et al., Neursci. Lett. (2003) 351, 137-140).
as §2
For rapid screening of chemical libraries, a mouse HT22 hippocampal cell death assay induced by addition of the compound iodoacetic acid (IAA) was used. IAA is a well-known, irreversible inhibitor of the glycolytic enzyme glyceraldehyde 3-phosphate dehydrogenase (G3PDH). […]

HT22 cells [2] = test: Maintenance of total GSH in the presence of glutamate; assay type: cell-based, mouse; details: derivative 1-10 μM, 5 mM glutamate, 24 hr
Description: Total intracellular glutathione was determined by a chemical assay as described (Maher, P. et al., Free Radical Research. (2006) 40 (10), 1105-1111).
as §1, §2

[3] = TEAC, ABTS decolorization assay; details: relative to Trolox
Description: TEAC values for the flavonoids were determined as described (Maher, P. et al., Free Radical Research. (2006), supra). Briefly, 250 μl of 2,2′-azinobis(3-ethylbenzothiazoline 6-sulfonate) (ABTS) treated overnight with potassium persulfate and diluted to an OD of ˜0.7 at 734 nm was added to 2.5 μl of a derivative solution in ethanol. The change in absorbance due to the reduction of the ABTS radical cation was measured at 734 nm for 4 min. To calculate the TEAC, the gradient of the plot of the percentage inhibition of absorbance vs. concentration for the derivative in question was divided by the gradient of the plot for Trolox.
as §2

[4] = Mus musculus, HT-22, HT22 cells, 20 μM IAA for 2 hr, viability after 24 hr by MTT, read-out: EC50 in vitro ischemia
[5] = HT22 cells, 20 μM IAA for 2 hr, viability after 24 hr by MTT
[6] = Mus musculus, HT-22, HT22 cells, 20 μM IAA, read-out: HT22 Cell IAA assay EC50
[7] = HT22 cells, 20 μM IAA, read-out: HT22 Cell IAA assay EC50

| Structure (SMILES) | PC12 diff'n (ability to induce PC12 cell differentiation) (PC12 cells) | EC50 (HT22 cells [1]; [4]) [nM] | GSH (ability to maintain GSH) (HT22 cells [2]) | TEAC [3] | EC50 in vitro ischemia (μM) (HT22 cells [1]; [5]) | EC50 (HT22 cells [1]; [6]) [nM] | fold improvement of neuroprotective activity/potency relative to Fisetin (HT22 cells [1]) [fold] | Emax (HT22 cells [1]; Mus musculus) [%] | EC50 (HT22 cells [1]; [7]) [nM] |
| --- | --- | --- | --- | --- | --- | --- | --- | --- | --- |
| COc1cc(/C=C/C(=O)c2ccc3ccccc3c2O)ccc1OCc1ccccc1 [CMS-063, (E)-3-(4-(benzyloxy)-3-methoxyphenyl)-1-(1-hydroxynaphthalen-2-yl)prop-2-en-1-one] | no | 500 | no | 0.15 | – | – | – | – | – |
| CC(C)Oc1cc(-c2ccc(N3CCCC3)cc2)nc2ccccc12 [CMS-113, 4-isopropoxy-2-(4-(pyrrolidin-1-yl)phenyl)quinoline] | no | 500 | no | 0.27 | – | – | – | – | – |
| CCOc1ccc(-c2oc3c(ccc4ccccc43)c(=O)c2O)cc1OCC [CMS-036, 2-(3,4-diethoxyphenyl)-3-hydroxy-4H-benzo[h]chromen-4-one] | no | 300 | no | 0.15 | – | – | – | – | – |
| CCOc1ccc(-c2cc(OC)c3ccccc3n2)cc1OCC [CMS-004, 4-methoxy-2-(3,4-diethoxyphenyl) quinoline] | no | – | no | 0.12 | no | – | – | – | – |
| COc1cc(-c2ccc(O)cc2)nc2ccccc12 [CMS-022, 4-methoxy-2-(4-hydroxyphenyl)quinoline] | no | – | no | 0.81 | no | – | – | – | – |
| COc1cc(-c2oc3c(ccc4ccccc43)c(=O)c2O)ccc1OCc1ccccc1 [CMS-065, 2-(4-(benzyloxy)-3-methoxyphenyl)-3-hydroxy-4H-benzo[h]chromen-4-one] | yes | 80 | no | 0 | – | 81 | – | – | – |
| COc1cc(-c2ccccc2)nc2ccccc12 [CMS-021, 4-methoxy-2-phenylquinoline] | no | 750 | no | 0.12 | – | – | – | – | – |
| O=C1/C(=C/c2ccc(O)c(O)c2)Oc2cc(O)ccc21 [PM-014] | – | – | – | – | – | 49 | – | – | – |
| CCOc1ccc(/C=C/C(=O)c2cc(C)c(C)cc2O)cc1OCC [CMS-013, (E)-3-(3,4-diethoxyphenyl)-1-(2-hydroxy-4,5-dimethylphenyl)prop-2-en-1-one] | no | – | no | 0.09 | no | – | – | – | – |
| COc1cc(-c2oc3cc(C)c(C)cc3c(=O)c2O)ccc1CCl [CMS-078, 2-(4-(chloromethyl)-3-methoxyphenyl)-3-hydroxy-6,7-dimethyl-4H-chromen-4-one] | – | – | – | – | – | 134 | – | – | – |
| O=c1cc(-c2ccc(N3CCCC3)cc2)oc2c1ccc1ccccc12 [CMS-115, 2-(4-(pyrrolidin-1-yl)phenyl)-4H-benzo[h]chromen-4-one] | no | 200 | no | 0.03 | – | – | – | – | – |
| CCOc1ccc(-c2cc(=O)c3ccc4ccccc4c3o2)cc1OCC [CMS-038, 2-(3,4-diethoxyphenyl)-4H-benzo[h]chromen-4-one] | no | – | no | 0.2 | no | – | – | – | – |
| O=c1cc(-c2ccc(O)c(O)c2)oc2ccc3ccccc3c12 [PM-003] | – | – | – | – | – | 80 | ~40 | – | – |
| O=C(/C=C/c1ccc(N2CCCC2)c(O)c1)c1ccc2ccccc2c1O [CMS-138, (E)-3-(3-hydroxy-4-(pyrrolidin-1-yl)phenyl)-1-(1-hydroxynaphthalen-2-yl)prop-2-en-1-one] | – | – | – | – | – | 70 | – | 72 | – |
| COc1cc(/C=C/C(=O)c2ccc3ccccc3c2O)ccc1N1CCCC1 [CMS-137, (E)-1-(1-hydroxynaphthalen-2-yl)-3-(3-methoxy-4-(pyrrolidin-1-yl)phenyl)prop-2-en-1-one] | – | – | – | – | – | 85 | – | 75 | – |
| O=c1cc(-c2ccc(O)c(O)c2)oc2ccccc12 [PM-001] | – | – | – | – | – | 500 | 6 | – | – |
| CC(C)c1ccc(O)c(C(=O)/C=C/c2ccc(O)c(O)c2)c1 [CMS-129, (E)-3-(3,4-dihydroxyphenyl)-1-(2-hydroxy-5-isopropylphenyl)prop-2-en-1-one] | – | – | – | – | – | ≤ 100 | – | 81 | 80 |
| COc1cc(-c2oc3c(ccc4ccccc43)c(=O)c2O)ccc1N1CCCC1 [CMS-139, 3-hydroxy-2-(3-methoxy-4-(pyrrolidin-1-yl)phenyl)-4H-benzo[h]chromen-4-one] | – | – | – | – | – | ≤ 100 | – | 92 | 50 |
